The values below come from article PMC11513923, “Discovery of ZLC491 as a Potent, Selective, and Orally Bioavailable CDK12/13 PROTAC Degrader” (Journal of Medicinal Chemistry, 2024).

One experiment has as its target CDK12 (Homo sapiens, UniProt Q9NYV4). The experiment in a line: CDK12 degradation in MDA-MB-231 cells by immunoblotting. As to conditions: 0.3 μM; for Protein Degradation (%DMSO control, 0.3 μM) CDK12: MDA-MB-231 cells, 15 h, immunoblotting, normalized against α-tubulin; for Degradation rates of CDK12 at 0.3 μM: supplementary CSV. It is filed as cell-based. Details: Immunoblotting of CDK12 and CDK13 in MDA-MB-231 cells treated with increasing concentrations of ZLC491 for 15 h; endogenous in cells; host or cells: MDA-MB-231. How it is done:
(§1) The degradation efficiency of the new molecules was assessed by immunoblotting after treatment with the compounds at 0.3 μM in MD-MBA-231 cells for 15 h.
(§2) To further characterize the compound, we determined the half-degradation concentration (DC50) values of ZLC491 in MDA-MB-231 cells. […] We also treated MDA-MB-231 cells with 1 μM ZLC491 at various time points.
(§3) (A) Immunoblotting of CDK12 and CDK13 in MDA-MB-231 cells treated with increasing concentrations of ZLC491 for 15 h (left). Percent remaining CDK12 and CDK13 proteins were plotted for DC50 determination (right). Protein levels were quantified using ImageJ and normalized to corresponding α-tubulin, then plotted using Graphpad Prism 8.0. The data were representative of three independent experiments; (B) immunoblotting of CDK12 and CDK13 proteins in MDA-MB-231 cells treated with ZLC491 for various time points; immunoblotting of CDK12 and CDK13 in HCC38 (C) and MDA-MB-436 (D) cells treated with increasing concentrations of ZLC491 for 15 h. α-Tubulin was used as a loading control. TEXT PRINTED IN THE PICTURE: (A) ZLC491: MDA-MB-231: CDK12 DC50 = 0.032μM; MDA-MB-231: CDK13 DC50 = 0.028μM DOUBTS OF THE COPYIST ABOUT THIS PICTURE: ZLC491, CDK12 DC50: 0.032 read from small print, the digits 3 and 2 are uncertain / ZLC491, CDK13 DC50: 0.028 read from small print, the last digit may be 8, 6 or 3
(§4) Generally, the tested cells were washed by ice-cold PBS buffer (Gibco) and lysed with an SDS lysis buffer (62.5 mM Tris, 2% w/v SDS, 10 glycerol, 50 mM DTT, 0.01% w/v bromophenol blue) on ice, after which the protein lysate samples were collected to 1.5 mL microcentrifuge tubes and treated with ultrasonic for 10 s, following with a 100 °C incubation for 10 min and a 4 °C centrifugation of 12000 rpm for 10 min. An equal amount of protein was loaded to 4–8% Bis-Tris gels and underwent an SDS-PAGE electrophoresis at 55V for 30 min and 95V for 90 min. Proteins on gels were then transferred to a polyvinylidene difluoride (PVDF) membrane (Bio-Rad) with a wet electro transfer system (Bio-Rad). The PVDF membrane was cut into bands and incubated in a blocking reagent (5% defatted milk powder dissolved in TBST) at room temperature for 1–2 h. Incubate membrane and primary antibody (at the appropriate dilution and diluent as recommended in the product webpage) at 4 °C for 12–14 h, followed with three times washes by TBST. The washed membranes were incubated in a secondary antibody solution (HRP-linked antirabbit IgG or antimouse IgG (CST), 1:2000 diluted into TBST) at room temperature for 2 h. Membranes were photographed in Amersham Imager 800 system using StarSignal plus regent (GenStar) or Omni-ECL reagent (EpiZyme). Compounds MG132, MLN4924, Bafilomycin A1 and pomalidomide were purchased from MedChemExpress (MCE) LLC.

The next experiment concerns the target T1, CDK13 (Homo sapiens, UniProt Q14004).
T1 construct: Immunoblotting of CDK12 and CDK13 in MDA-MB-231 cells treated with increasing concentrations of ZLC491 for 15 h; endogenous in cells; host or cells: MDA-MB-231
Kind of experiment: CDK13 degradation in MDA-MB-231 cells by immunoblotting.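 For Protein Degradation (%DMSO control, 0.3 μM) CDK13: percent of CDK13 protein degraded relative to DMSO control.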 It is filed as cell-based. As to conditions: 0.3 μM; for Protein Degradation (%DMSO control, 0.3 μM) CDK13: MDA-MB-231 cells, 15 h, immunoblotting, normalized against α-tubulin; for Degradation rates of CDK13 at 0.3 μM: supplementary CSV. As to the method:
as §1, §2, §3, §4

CDK12, sequence (Q9NYV4 whole entry): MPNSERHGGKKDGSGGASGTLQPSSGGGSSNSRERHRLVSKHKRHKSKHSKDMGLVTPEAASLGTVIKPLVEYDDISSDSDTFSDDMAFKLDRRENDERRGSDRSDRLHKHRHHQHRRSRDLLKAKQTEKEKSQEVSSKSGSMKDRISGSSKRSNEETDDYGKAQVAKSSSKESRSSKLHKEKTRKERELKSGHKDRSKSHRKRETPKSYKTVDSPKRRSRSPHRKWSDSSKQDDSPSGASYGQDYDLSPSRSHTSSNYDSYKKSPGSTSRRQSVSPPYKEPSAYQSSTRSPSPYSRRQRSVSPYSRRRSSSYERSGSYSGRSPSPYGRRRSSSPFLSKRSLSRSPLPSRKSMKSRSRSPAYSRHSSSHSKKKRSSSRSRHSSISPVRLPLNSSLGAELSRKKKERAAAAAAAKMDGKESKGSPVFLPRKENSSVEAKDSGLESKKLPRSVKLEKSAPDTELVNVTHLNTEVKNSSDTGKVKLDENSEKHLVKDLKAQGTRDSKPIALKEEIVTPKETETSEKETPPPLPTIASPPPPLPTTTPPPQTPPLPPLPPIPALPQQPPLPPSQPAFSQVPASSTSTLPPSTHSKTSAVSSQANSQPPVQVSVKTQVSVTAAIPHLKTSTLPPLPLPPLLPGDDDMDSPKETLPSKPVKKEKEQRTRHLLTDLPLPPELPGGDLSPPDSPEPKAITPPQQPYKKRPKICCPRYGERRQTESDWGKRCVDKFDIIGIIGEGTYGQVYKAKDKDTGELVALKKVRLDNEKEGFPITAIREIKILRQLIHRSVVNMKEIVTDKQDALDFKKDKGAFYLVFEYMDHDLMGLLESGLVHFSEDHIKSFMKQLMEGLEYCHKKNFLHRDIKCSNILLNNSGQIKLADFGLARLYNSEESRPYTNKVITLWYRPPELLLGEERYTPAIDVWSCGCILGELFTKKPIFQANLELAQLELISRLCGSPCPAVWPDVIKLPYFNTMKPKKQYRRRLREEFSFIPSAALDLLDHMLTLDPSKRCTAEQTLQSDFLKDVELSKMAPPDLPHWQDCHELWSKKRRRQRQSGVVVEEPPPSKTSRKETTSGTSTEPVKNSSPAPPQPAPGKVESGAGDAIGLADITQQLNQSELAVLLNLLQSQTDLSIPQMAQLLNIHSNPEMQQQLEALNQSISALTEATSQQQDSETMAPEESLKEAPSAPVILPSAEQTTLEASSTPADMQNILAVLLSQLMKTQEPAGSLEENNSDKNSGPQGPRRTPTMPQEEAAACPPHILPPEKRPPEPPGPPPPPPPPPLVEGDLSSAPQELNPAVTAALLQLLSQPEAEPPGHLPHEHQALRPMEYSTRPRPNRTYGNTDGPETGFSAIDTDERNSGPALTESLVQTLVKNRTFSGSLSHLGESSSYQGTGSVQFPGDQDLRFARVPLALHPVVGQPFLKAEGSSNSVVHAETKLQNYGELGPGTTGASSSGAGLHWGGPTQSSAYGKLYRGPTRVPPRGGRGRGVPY
CDK12, sequence (O75909 whole entry partner): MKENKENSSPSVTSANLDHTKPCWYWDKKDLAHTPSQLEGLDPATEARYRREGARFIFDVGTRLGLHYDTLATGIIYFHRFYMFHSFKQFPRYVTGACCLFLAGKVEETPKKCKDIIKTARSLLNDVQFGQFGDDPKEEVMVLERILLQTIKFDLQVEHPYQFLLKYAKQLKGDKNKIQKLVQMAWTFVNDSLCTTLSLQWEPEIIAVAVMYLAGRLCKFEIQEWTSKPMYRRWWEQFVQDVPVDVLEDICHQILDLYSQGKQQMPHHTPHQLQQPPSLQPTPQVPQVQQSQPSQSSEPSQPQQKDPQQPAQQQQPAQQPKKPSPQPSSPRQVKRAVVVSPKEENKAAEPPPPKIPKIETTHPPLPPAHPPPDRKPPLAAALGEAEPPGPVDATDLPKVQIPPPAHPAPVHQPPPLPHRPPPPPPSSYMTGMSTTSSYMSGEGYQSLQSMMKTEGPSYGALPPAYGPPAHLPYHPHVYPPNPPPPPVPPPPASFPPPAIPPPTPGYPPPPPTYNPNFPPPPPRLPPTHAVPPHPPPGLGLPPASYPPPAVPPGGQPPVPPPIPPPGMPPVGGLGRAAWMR
T1 sequence (Q14004 whole entry): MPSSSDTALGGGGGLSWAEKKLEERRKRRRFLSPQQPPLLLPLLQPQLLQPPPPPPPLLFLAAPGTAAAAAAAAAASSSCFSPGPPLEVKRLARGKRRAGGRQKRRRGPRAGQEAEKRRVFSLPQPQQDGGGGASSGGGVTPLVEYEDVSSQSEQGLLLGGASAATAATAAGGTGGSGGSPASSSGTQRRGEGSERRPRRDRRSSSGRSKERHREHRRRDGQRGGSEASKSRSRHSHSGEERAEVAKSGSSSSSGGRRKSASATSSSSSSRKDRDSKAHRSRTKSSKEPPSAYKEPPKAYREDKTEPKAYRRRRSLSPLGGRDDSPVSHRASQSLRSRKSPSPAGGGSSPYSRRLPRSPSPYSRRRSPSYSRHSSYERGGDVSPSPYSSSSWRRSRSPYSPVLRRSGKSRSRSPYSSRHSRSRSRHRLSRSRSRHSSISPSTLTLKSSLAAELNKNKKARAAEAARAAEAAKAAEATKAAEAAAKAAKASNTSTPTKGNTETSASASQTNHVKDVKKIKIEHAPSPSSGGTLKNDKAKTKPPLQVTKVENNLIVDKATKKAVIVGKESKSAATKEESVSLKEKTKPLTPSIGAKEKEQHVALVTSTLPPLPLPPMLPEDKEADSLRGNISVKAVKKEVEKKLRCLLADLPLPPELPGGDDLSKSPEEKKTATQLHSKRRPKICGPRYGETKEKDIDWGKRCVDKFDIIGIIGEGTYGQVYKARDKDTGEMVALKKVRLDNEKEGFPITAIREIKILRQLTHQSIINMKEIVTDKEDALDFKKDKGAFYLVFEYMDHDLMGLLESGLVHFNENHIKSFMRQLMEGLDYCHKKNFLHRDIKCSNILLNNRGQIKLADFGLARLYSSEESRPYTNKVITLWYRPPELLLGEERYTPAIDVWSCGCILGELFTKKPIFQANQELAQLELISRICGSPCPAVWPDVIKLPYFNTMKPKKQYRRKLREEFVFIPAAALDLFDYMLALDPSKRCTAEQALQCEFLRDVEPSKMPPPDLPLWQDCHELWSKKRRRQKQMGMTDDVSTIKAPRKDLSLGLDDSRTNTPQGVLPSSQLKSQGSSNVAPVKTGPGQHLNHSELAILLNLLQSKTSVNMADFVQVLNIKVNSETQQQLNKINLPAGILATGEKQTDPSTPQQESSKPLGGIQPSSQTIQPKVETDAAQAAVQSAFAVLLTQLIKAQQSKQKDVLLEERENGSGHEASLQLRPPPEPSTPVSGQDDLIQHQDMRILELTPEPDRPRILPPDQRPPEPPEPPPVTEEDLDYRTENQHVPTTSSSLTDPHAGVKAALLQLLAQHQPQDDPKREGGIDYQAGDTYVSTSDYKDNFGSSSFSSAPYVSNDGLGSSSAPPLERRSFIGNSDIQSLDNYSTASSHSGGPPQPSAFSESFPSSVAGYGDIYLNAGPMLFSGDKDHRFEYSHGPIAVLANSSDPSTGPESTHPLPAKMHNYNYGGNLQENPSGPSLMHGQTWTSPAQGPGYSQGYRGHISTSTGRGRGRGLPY
T1 sequence (O75909 whole entry partner): as the sequence (O75909 whole entry partner) above

For `N#Cc1ccc(N[C@H]2CC[C@H](N(C(=O)NCc3ccccc3)c3ccc(N4CCN(C(=O)C5CCN(c6ccc7c(c6)C(=O)N(C6CCC(=O)NC6=O)C7=O)C5)CC4)cc3)CC2)nc1` (stereo partly drawn) [4b, 3-Benzyl-1-((1r,4r)-4-((5-cyanopyridin-2-yl)amino)cyclohexyl)-1-(4-(4-(1-(2-(2,6-dioxopiperidin-3-yl)-1,3-dioxoisoindolin-5-yl)pyrrolidine-3-carbonyl)piperazin-1-yl)phenyl)urea], on CDK12, the “Protein Degradation (%DMSO control, 0.3 μM) CDK12” value turned out to be 61% and the Degradation rates of CDK12 at 0.3 μM was 61%. On CDK13, the “Protein Degradation (%DMSO control, 0.3 μM) CDK13” value was found to be 65% and the Degradation rates of CDK13 at 0.3 μM is 65%.

For `N#Cc1ccc(N[C@H]2CC[C@H](N(C(=O)NCc3ccccc3)c3ccc(N4CCC5(CC4)CN(c4ccc6c(c4)C(=O)N(C4CCC(=O)NC4=O)C6=O)C5)cc3)CC2)nc1` (stereo partly drawn) [4n, 3-Benzyl-1-((1r,4r)-4-((5-cyanopyridin-2-yl)amino)cyclohexyl)-1-(4-(2-(2-(2,6-dioxopiperidin-3-yl)-1,3-dioxoisoindolin-5-yl)-2,7-diazaspiro[3.5]nonan-7-yl)phenyl)urea], on CDK12, the “Protein Degradation (%DMSO control, 0.3 μM) CDK12” value was 63% and the Degradation rates of CDK12 at 0.3 μM turned out to be 63%. Also, at CDK13, the “Protein Degradation (%DMSO control, 0.3 μM) CDK13” value is 85% and the Degradation rates of CDK13 at 0.3 μM was determined as 85%.

Regarding `N#Cc1ccc(N[C@H]2CC[C@H](N(C(=O)NCc3ccccc3)c3ccc(N4CCC(CN5CCN(c6ccc7c(c6)C(=O)N(C6CCC(=O)NC6=O)C7=O)CC5)CC4)cc3)CC2)nc1` (stereo partly drawn) [4j, 3-Benzyl-1-((1r,4r)-4-((5-cyanopyridin-2-yl)amino)cyclohexyl)-1-(4-(4-((4-(2-(2,6-dioxopiperidin-3-yl)-1,3-dioxoisoindolin-5-yl)piperazin-1-yl)methyl)piperidin-1-yl)phenyl)urea], at CDK12, the “Protein Degradation (%DMSO control, 0.3 μM) CDK12” value is given as 49% and the Degradation rates of CDK12 at 0.3 μM was determined as 49%. For the same molecule, at CDK13, the “Protein Degradation (%DMSO control, 0.3 μM) CDK13” value came out at 71% and the Degradation rates of CDK13 at 0.3 μM came out at 71%.

Take `N#Cc1ccc(N[C@H]2CC[C@H](N(C(=O)NCc3ccccc3)c3ccc(N4CCC5(CC4)CCN(c4ccc6c(c4)C(=O)N(C4CCC(=O)NC4=O)C6=O)C5)cc3)CC2)nc1` (stereo partly drawn) [4o, 3-Benzyl-1-((1r,4r)-4-((5-cyanopyridin-2-yl)amino)cyclohexyl)-1-(4-(2-(2-(2,6-dioxopiperidin-3-yl)-1,3-dioxoisoindolin-5-yl)-2,8-diazaspiro[4.5]decan-8-yl)phenyl)urea]: on CDK12, the “Protein Degradation (%DMSO control, 0.3 μM) CDK12” value stood at 27% and the Degradation rates of CDK12 at 0.3 μM came to 27%. Besides, on CDK13, the “Protein Degradation (%DMSO control, 0.3 μM) CDK13” value stood at 47% and the Degradation rates of CDK13 at 0.3 μM came out at 47%.

`N#Cc1ccc(N[C@H]2CC[C@H](N(C(=O)NCc3ccccc3)c3ccc(N4CCN(C[C@H]5CCN(c6ccc7c(c6)C(=O)N(C6CCC(=O)NC6=O)C7=O)C5)CC4)cc3)CC2)nc1` (stereo partly drawn) [4f, 3-Benzyl-1-((1r,4r)-4-((5-cyanopyridin-2-yl)amino)cyclohexyl)-1-(4-(4-(((3R)-1-(2-(2,6-dioxopiperidin-3-yl)-1,3-dioxoisoindolin-5-yl)pyrrolidin-3-yl)methyl)piperazin-1-yl)phenyl)urea]: at CDK12, the “Protein Degradation (%DMSO control, 0.3 μM) CDK12” value is 59% and the Degradation rates of CDK12 at 0.3 μM stood at 59%. Further, at CDK13, the “Protein Degradation (%DMSO control, 0.3 μM) CDK13” value was determined as 64% and the Degradation rates of CDK13 at 0.3 μM was 64%.

Turning to `N#Cc1ccc(N[C@H]2CC[C@H](N(C(=O)NCc3ccccc3)c3ccc(N4CCN(CC5CCN(c6cc7c(cc6F)C(=O)N(C6CCC(=O)NC6=O)C7=O)CC5)CC4)cc3)CC2)nc1` (stereo partly drawn) [4g-F, 3-Benzyl-1-((1r,4r)-4-((5-cyanopyridin-2-yl)amino)cyclohexyl)-1-(4-(4-((1-(2-(2,6-dioxopiperidin-3-yl)-6-fluoro-1,3-dioxoisoindolin-5-yl)piperidin-4-yl)methyl)piperazin-1-yl)phenyl)urea], on CDK12, the “Protein Degradation (%DMSO control, 0.3 μM) CDK12” value was found to be 53% and the Degradation rates of CDK12 at 0.3 μM is 53%. At CDK13, the “Protein Degradation (%DMSO control, 0.3 μM) CDK13” value is recorded as 57% and the Degradation rates of CDK13 at 0.3 μM was 57%.
